# In the supplement of paper PMC10307832:
# Tests used:
# Experiment in all cases: relative viability (nuclei count vs DMSO), 5 days (fraction); higher = more cells survive
# [1] = compound: CCN(CC)CCNC(=O)c1c(C)[nH]c(/C=C2\C(=O)Nc3ccc(F)cc32)c1C [Sunitinib] + COc1cc2c(Oc3ccc(NC(=O)C4(C(=O)Nc5ccc(F)cc5)CC4)cc3F)ccnc2cc1OCCCN1CCOCC1 [Foretinib] (partner 0.25 µM)
# Procedure, shortened: (§1)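 Relative viability divides the nuclei count in treated wells by that in vehicle wells. Lung cancer cell lines were seeded in 1536-well plates, dosed by pin tool the next day, and fixed and stained after 5 days in one step with final 0.05% Triton X-100, 1% formaldehyde and 1 ug/ml Hoechst. Dosing was a single drug or a fixed anchor-drug dose plus five library-drug doses (not always all listed) in √10 steps, and values are medians of duplicate plates imaged at 4×.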
# [2] = compound: CCN(CC)CCNC(=O)c1c(C)[nH]c(/C=C2\C(=O)Nc3ccc(F)cc32)c1C [Sunitinib] + O=C(CCCCCCC(=O)Nc1ccccc1)NO [Vorinostat] (partner 1 µM)
# Procedure, shortened: as §1
# [3] = compound: CCN(CC)CCNC(=O)c1c(C)[nH]c(/C=C2\C(=O)Nc3ccc(F)cc32)c1C [Sunitinib] + NC(=O)Nc1cc(-c2cccc(F)c2)sc1C(=O)N[C@H]1CCCNC1 [AZD7762] (partner 0.2 µM)
# Procedure, shortened: as §1
# [4] = compound: CCN(CC)CCNC(=O)c1c(C)[nH]c(/C=C2\C(=O)Nc3ccc(F)cc32)c1C [Sunitinib] + CS(=O)(=O)N1CCN(Cc2cc3nc(-c4cccc5[nH]ncc45)nc(N4CCOCC4)c3s2)CC1 [Pictilisib] (partner 1 µM)
# Procedure, shortened: as §1
Cell Line,relative viability ([1]; first compound 0.06325 µM),relative viability ([1]; first compound 0.2 µM),relative viability ([1]; first compound 0.6325 µM),relative viability ([1]; first compound 2 µM),relative viability ([2]; first compound 0.02 µM),relative viability ([2]; first compound 0.06325 µM),relative viability ([2]; first compound 0.2 µM),relative viability ([2]; first compound 0.6325 µM),relative viability ([2]; first compound 2 µM),relative viability ([3]; first compound 0.02 µM),relative viability ([3]; first compound 0.06325 µM),relative viability ([3]; first compound 0.2 µM),relative viability ([3]; first compound 0.6325 µM),relative viability ([3]; first compound 2 µM),relative viability ([4]; first compound 0.02 µM),relative viability ([4]; first compound 0.06325 µM),relative viability ([4]; first compound 0.6325 µM),relative viability ([4]; first compound 2 µM),relative viability ([1]; first compound 0.02 µM),relative viability ([4]; first compound 0.2 µM)
NCI-H647,1.03,1.34,1.13,1.21,0.469,0.572,0.795,0.648,0.643,0.482,0.48,0.546,0.642,0.469,0.302,0.381,0.373,0.454,–,–
NCI-H1944,1,0.962,0.944,0.863,0.547,0.736,0.659,0.625,0.559,0.435,0.481,0.656,0.63,0.506,0.315,0.379,0.337,0.374,0.738,0.412
NCI-H3122,0.963,1.04,0.976,0.97,0.958,1.02,1.03,1.05,1.02,0.933,1.08,1.01,0.999,1.01,0.576,0.64,0.577,0.548,0.904,0.583
HCC-15,1.14,1.16,1.13,1.02,0.905,0.93,0.984,0.789,0.85,1.17,1.28,1.37,1.09,1.41,0.68,0.791,0.749,0.774,1.07,0.888
NCI-H1993,0.691,0.789,0.685,0.73,0.857,0.727,0.911,0.747,0.9,0.723,0.757,0.782,0.761,0.845,0.777,0.913,0.832,0.92,0.746,0.808
NCI-H1755,0.897,0.959,0.981,0.936,0.735,0.878,0.897,0.758,0.842,0.414,0.478,0.53,0.408,0.421,0.371,0.481,0.454,0.451,0.891,0.472
NCI-H2342,1.17,1.15,1.18,1.16,0.622,0.918,0.794,0.724,0.889,0.48,0.601,0.649,0.505,0.556,–,–,–,–,0.901,–
COR-L 105,1.22,0.952,1.12,1.12,0.856,0.646,0.817,0.797,0.744,–,–,–,–,–,0.371,0.415,0.364,0.409,1.07,0.569
SK-LU-1,0.901,1.06,0.834,0.581,0.821,0.7,0.821,0.86,0.657,–,–,–,–,–,0.538,0.66,0.53,0.483,–,0.603
NCI-H2228,0.833,0.963,0.842,0.657,0.412,0.705,0.626,1.03,0.764,–,–,–,–,–,0.536,0.445,0.454,0.216,0.844,0.299
NCI-H1395,0.996,1.05,1,1.14,0.715,0.715,0.757,0.897,0.983,0.422,0.431,0.413,0.418,0.421,0.609,0.646,0.614,0.594,0.955,0.662
NCI-H1648,–,–,–,–,0.58,0.465,0.356,0.338,0.442,0.702,0.814,0.694,0.715,0.828,–,–,–,–,–,–
NCI-H650,1.01,1.06,1.11,0.975,0.382,0.439,0.423,0.55,0.395,0.882,1.15,0.945,1.1,0.944,0.828,1.09,0.858,0.843,1.03,0.932
A549,0.951,1.09,1.05,0.974,–,–,–,–,–,–,–,–,–,–,0.457,0.546,0.631,0.412,1.06,0.589
LC-2-ad,0.949,0.952,0.99,0.861,0.673,0.767,0.774,0.799,0.698,0.796,0.889,0.983,0.844,0.873,0.51,0.461,0.285,0.28,0.868,0.444
EMC-BAC-2,1.08,1.15,1.07,0.969,0.458,0.464,0.506,0.506,0.505,1.08,1.24,1.22,1.27,1.2,0.501,0.601,0.548,0.565,0.973,0.589
EBC-1,0.112,0.0979,0.112,0.119,–,–,–,–,–,–,–,–,–,–,0.41,0.377,0.411,0.46,0.101,0.463
NCI-H1975,1.03,1.07,1.01,1.01,0.693,0.714,0.77,0.733,0.666,0.748,0.679,0.723,0.705,0.579,0.285,0.345,0.33,0.237,0.899,0.319
